Among the test systems are K562; OVCAR-3; SK-MEL-28; SK-MEL-5; NCI-H23; RXF 393; ACHN; LOX IMVI; HCT-116; HT-29; A498; SF-268; HL-60; HCC 2998.
What all share (assay): NCI tumour cell line growth inhibition, 48 h

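Grown in 96-well plates, cells were treated for 48 hours with each compound at five concentrations. Insufficient inhibition: endpoint recorded as highest concentration tested. GI50 marks 50% less growth.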 Active and inactive are the calls of the source. No stated cut-off is given here; in the data, active = GI50 up to about 1.1 µM and inactive = higher. Some results are limits rather than exact numbers.

Consider `Cc1cc(NS(=O)(=O)c2ccc(Nc3c4ccccc4nc4c(C(=O)Nc5ccc(S(N)(=O)=O)cc5)cccc34)cc2)no1`, for which the GI50 was 44.3 µM (inactive) with K562; 16 µM (inactive) in the assay on OVCAR-3; 28.9 µM (inactive) in the assay with SK-MEL-28; 63.1 µM (inactive) in the assay with SK-MEL-5; 47.5 µM (inactive) in the assay with NCI-H23; 90.6 µM (inactive) in the assay on RXF 393. The GI50 is > 100 µM (inactive) in the assay on ACHN; 35 µM (inactive) in the assay on LOX IMVI; 31.2 µM (inactive) in the assay with HCT-116; > 100 µM (inactive) in the assay with HT-29; > 100 µM (inactive) in the assay on A498; 36.9 µM (inactive) with SF-268.

As for `COc1ccc(C=O)c(N(C)C(=O)C(C)(C)C)c1`, the GI50 in the assay with K562, in the assay on OVCAR-3, in the assay with SK-MEL-28, in the assay with SK-MEL-5, in the assay with NCI-H23 and in the assay on RXF 393 was > 100 µM (inactive) each time. The GI50 in the assay with ACHN, with LOX IMVI, with HCT-116, in the assay with HL-60, in the assay with HT-29 and in the assay on A498 was > 100 µM (inactive) throughout. The GI50 in the assay on SF-268 and in the assay on HCC 2998 was > 100 µM (inactive) each time.

In the case of `NNC(=O)/C(=C/c1ccc(Cl)c(Cl)c1)NC(=O)c1ccccc1`, the GI50 with OVCAR-3, in the assay on SK-MEL-28, in the assay on SK-MEL-5, in the assay with NCI-H23, in the assay with RXF 393 and in the assay with ACHN was > 100 µM (inactive) throughout. In addition, the GI50 in the assay on LOX IMVI, in the assay on HCT-116, with HL-60, with HT-29, in the assay on SF-268 and with HCC 2998 was > 100 µM (inactive) in each case.

As for `COC(=O)/C1=C/C2CC(/C=C(/c3ccccc3)C(=O)O1)C2`, the GI50 with K562 is 27.8 µM (inactive); with OVCAR-3, 33.2 µM (inactive); with SK-MEL-28 it was 23.8 µM (inactive); in the assay on SK-MEL-5 it was 17.7 µM (inactive); in the assay on NCI-H23 it was 17 µM (inactive); with RXF 393 it was 25.1 µM (inactive). In addition, the GI50 is 26.3 µM (inactive) in the assay with ACHN; 17.5 µM (inactive) in the assay on LOX IMVI; 21.8 µM (inactive) with HCT-116; 22.5 µM (inactive) in the assay with HL-60; 26.9 µM (inactive) with HT-29.

Regarding `COc1nc(=O)cc(N)n1C1OC(CO)C(O)C1O` (configuration not stated), the GI50 in the assay on K562, with OVCAR-3, in the assay with SK-MEL-28, with SK-MEL-5, with NCI-H23 and in the assay with RXF 393 was > 100 µM (inactive) each time. The GI50 in the assay with ACHN, in the assay with LOX IMVI, in the assay on HCT-116, with HL-60, with HT-29 and in the assay with A498 was > 100 µM (inactive) in each case. Further, the GI50 in the assay on SF-268 and with HCC 2998 was > 100 µM (inactive) in each case.

Turning to `c1ccc2c(c1)c1ccccc1c1n[se]nc21`, the GI50 with K562 was > 100 µM (inactive); in the assay with SK-MEL-28, > 100 µM (inactive); in the assay on SK-MEL-5 it was > 100 µM (inactive); in the assay with NCI-H23, > 100 µM (inactive); in the assay with RXF 393 it was 68.5 µM (inactive); in the assay with ACHN, 31.8 µM (inactive). Besides, the GI50 with LOX IMVI was > 100 µM (inactive); in the assay on HL-60, > 100 µM (inactive); in the assay with HT-29, 57 µM (inactive); with A498 it was 19.5 µM (inactive); in the assay with SF-268, > 100 µM (inactive).

As for `C=C(c1ccccc1N)[C@@]1(O)C[C@H](/C(=C\C)CO)C[C@@H]1NCc1ccccc1`, the GI50 in the assay on K562 is 18.6 µM (inactive); in the assay on OVCAR-3 it was 18.2 µM (inactive); with SK-MEL-28, 18.3 µM (inactive); with SK-MEL-5, 17.1 µM (inactive); in the assay on NCI-H23, 29.9 µM (inactive); in the assay with RXF 393, 16.7 µM (inactive). Besides, the GI50 was 36.8 µM (inactive) in the assay with ACHN; 17.1 µM (inactive) in the assay with LOX IMVI; 15.3 µM (inactive) in the assay on HCT-116; 13.3 µM (inactive) in the assay with HL-60; 17.5 µM (inactive) in the assay on HT-29; 82.6 µM (inactive) with A498. Further, the GI50 in the assay on SF-268 was 30.8 µM (inactive); with HCC 2998 it was 15.7 µM (inactive).

`Cc1cc(NS(=O)(=O)c2ccc(NC(=O)c3cccc4c(N)c5ccccc5nc34)cc2)no1`: the GI50 in the assay on K562 is 31.2 µM (inactive); with OVCAR-3, 21.7 µM (inactive); in the assay with SK-MEL-28, 22.1 µM (inactive); in the assay on SK-MEL-5 it was > 10 µM (inactive); with NCI-H23 it was 21.8 µM (inactive); with RXF 393 it was 16.3 µM (inactive). For the same compound, the GI50 in the assay on ACHN was 20 µM (inactive); in the assay with LOX IMVI it was 23.4 µM (inactive); in the assay with HCT-116, 14.5 µM (inactive); in the assay on HT-29 it was 27.9 µM (inactive); in the assay on A498, 19.4 µM (inactive); in the assay on SF-268, 21 µM (inactive).

Take `CC(/C=C1\CCC(CN(C)C)C1=O)c1cccc(Br)c1` (configuration not stated): the GI50 with K562 is 2.77 µM (inactive); with OVCAR-3, 17 µM (inactive); in the assay with SK-MEL-28 it was 17 µM (inactive); with SK-MEL-5, 13.8 µM (inactive); in the assay with NCI-H23, 19.5 µM (inactive); in the assay with RXF 393, 13.3 µM (inactive). The GI50 with ACHN was 13.4 µM (inactive); in the assay with HCT-116, 8.59 µM (inactive); in the assay with HL-60 it was 3.06 µM (inactive); in the assay with HT-29 it was 15.1 µM (inactive); with A498 it was 26.5 µM (inactive); with SF-268 it was 21.7 µM (inactive). In addition, in the assay on HCC 2998, the GI50 was 20.4 µM (inactive).

As for `CC(C)(C)C1CCC2c3c([nH]c4ccccc34)C3C(=O)N(c4ccc(Br)cc4)C(=O)C3C2C1` (configuration not stated), the GI50 with K562 was 15.7 µM (inactive); in the assay on SK-MEL-28, 48.2 µM (inactive); in the assay with SK-MEL-5 it was 25.8 µM (inactive); with NCI-H23, 18.8 µM (inactive); in the assay with ACHN, 17.7 µM (inactive); in the assay on LOX IMVI, 15.7 µM (inactive). In addition, the GI50 is 32.9 µM (inactive) in the assay with HCT-116; 13.3 µM (inactive) with HL-60; 17.3 µM (inactive) in the assay on HT-29; 28.6 µM (inactive) with A498; 24.5 µM (inactive) with SF-268; < 0.01 µM (active) in the assay on HCC 2998.

`C#CCN(N=O)C(=O)NCCCCC(NC(=O)OCc1ccccc1)C(=O)OCc1ccccc1` (configuration not stated): the GI50 in the assay on K562 is 23.3 µM (inactive); in the assay with OVCAR-3, 25.5 µM (inactive); in the assay on SK-MEL-28, 49.5 µM (inactive); with SK-MEL-5, 62.4 µM (inactive); in the assay with NCI-H23, 34.6 µM (inactive); in the assay with RXF 393, 25.4 µM (inactive). The GI50 is 61.5 µM (inactive) in the assay with ACHN; 14.5 µM (inactive) in the assay with LOX IMVI; 32.7 µM (inactive) in the assay with HCT-116; 29.9 µM (inactive) with HL-60; 62.4 µM (inactive) in the assay with HT-29; > 100 µM (inactive) with A498. Further, the results for the GI50 with SF-268 and in the assay with HCC 2998 were 27.6 µM (inactive) and > 100 µM (inactive), respectively.

For `Cc1cccc(C(C)(C)C)c1NC(=O)C(=O)Cc1nc2ccccc2s1`, the GI50 with K562, in the assay with OVCAR-3, in the assay on SK-MEL-28, in the assay with SK-MEL-5, with NCI-H23 and with ACHN was > 100 µM (inactive) in each case. For the same compound, the GI50 in the assay with LOX IMVI, with HCT-116, with HL-60, in the assay with HT-29, with A498 and in the assay with SF-268 was > 100 µM (inactive) throughout. In addition, in the assay on HCC 2998, the GI50 is > 100 µM (inactive).

As for `CC(C)c1ccc(C2C3=C(N=C4SCC(=O)N42)C(=O)c2ccccc23)cc1` (configuration not stated), the GI50 with K562 was 54 µM (inactive); in the assay with OVCAR-3, 60 µM (inactive); in the assay with SK-MEL-28, 35.1 µM (inactive); with SK-MEL-5 it was 52.6 µM (inactive); in the assay on NCI-H23, 75.3 µM (inactive); in the assay with ACHN, 73.1 µM (inactive). For the same compound, the GI50 was 70.6 µM (inactive) in the assay on HCT-116; 36 µM (inactive) with HL-60; > 100 µM (inactive) in the assay with HT-29; > 100 µM (inactive) in the assay with A498; 37.1 µM (inactive) with SF-268; > 100 µM (inactive) in the assay on HCC 2998.

For the compound `Sc1nnc(/C=C/c2ccc(Cl)c(Cl)c2)[nH]1`, the GI50 in the assay with K562 was > 100 µM (inactive); with OVCAR-3, 77.1 µM (inactive); in the assay with SK-MEL-28, > 100 µM (inactive); in the assay with SK-MEL-5 it was 44.8 µM (inactive); with NCI-H23 it was > 100 µM (inactive); in the assay with RXF 393, > 100 µM (inactive). In addition, the GI50 was > 100 µM (inactive) in the assay on ACHN; > 100 µM (inactive) in the assay on LOX IMVI; > 100 µM (inactive) in the assay with HCT-116; > 100 µM (inactive) with HL-60; > 100 µM (inactive) with HT-29; 53.8 µM (inactive) with A498. For the same compound, the GI50 was > 100 µM (inactive) with SF-268 and < 0.01 µM (active) in the assay on HCC 2998.

Take `CC1OC(n2cc(Cl)c(=O)[nH]c2=O)C=C(OC(=O)c2ccccc2)C1=O` (configuration not stated): the GI50 in the assay on K562, in the assay on OVCAR-3, in the assay with SK-MEL-28, in the assay with SK-MEL-5, in the assay on NCI-H23 and in the assay on RXF 393 was > 100 µM (inactive) each time. In addition, the GI50 in the assay with ACHN, in the assay on LOX IMVI, in the assay on HL-60 and in the assay on HT-29 was > 100 µM (inactive) throughout.

Take `NS(=O)(=O)c1cc2c(cc1Cl)NC(/C(=N/NC(=O)c1ccncc1)C1C(=O)NC(=O)NC1=O)=NS2(=O)=O`: the GI50 in the assay with K562 was > 100 µM (inactive); in the assay on OVCAR-3 it was > 100 µM (inactive); in the assay on SK-MEL-5, > 100 µM (inactive); in the assay on ACHN it was > 100 µM (inactive); with LOX IMVI, > 100 µM (inactive); with HCT-116 it was 55.8 µM (inactive). Further, the GI50 in the assay with HL-60, in the assay with A498 and with HCC 2998 was > 100 µM (inactive) each time.
